Literature values in patent US20080131492A1, “Dosage forms for movement disorder treatment” (Spherics, Inc., priority 2006, published 2008).

Conditions: doses of 400 mg per day

C[C@@](Cc1ccc(O)c(O)c1)(NN)C(=O)O [carbidopa]
adverse effects: fails to elicit adverse effects
